Measurements published in patent US20260049089A1, “KRAS INHIBITOR COMPOUND” (SHANGHAI APEIRON THERAPEUTICS COMPANY LIMITED, priority 2022, published 2026).

Experiments:
[1] = target: KRAS G12D GDP protein (His-tag-KRAS G12D) (Homo sapiens (Human), UniProt P01116, G12D); experiment: AlphaLISA compound screening assay, KRAS-GDP protein format; details: AlphaLISA with SOS1, GTP, cRAF, read-out: GDP-format IC50 (nM)/ Binding assay
Method: • Buffer 1: Composition and final concentrations: 25 mM HEPES, pH 7.5; 10 mM MgCl2; 0.01% Triton X-100. • Buffer 2: Composition and final concentrations: 25 mM HEPES, pH 7.5; 10 mM MgCl2; 0.01% Triton X-100; 1 mM DTT.
• 4> Use the ECHO555 automated liquid handler to prepare compounds. Test concentrations: The maximum compound concentration is 10 μM or 1 μM, serially diluted 3-fold, with 10 concentrations tested. Each concentration is tested in duplicate, with 0.5% DMSO as the solvent. • 5> High Signal Control Group (High Control): 30 replicates with 0.5% DMSO. KRAS protein is included in the reaction, representing 0% inhibition • 6> Low Signal Control Group (Low Control): 30 replicates with 0.5% DMSO. KRAS protein is not involved in the reaction, representing 100% inhibition
d. KRAS-GDP Protein Assay Procedure • 6> Add 5 μL of KRAS solution prepared with Buffer 1 to each well of the high-signal control group and compound test wells. Add 5 μL of Buffer 1 to each well of the low-signal control group. […] Incubate at room temperature for 1 hour. • 10> Measure the signal values using an EnVision plate reader. […] Incubate at room temperature for 1 hour. • 10> Measure the signal values using an EnVision plate reader. […] Incubate at room temperature for 1 hour. • 10> Measure the signal values using an EnVision plate reader. […]

[2] = target: KRAS G12D GTP protein (His-tag-KRAS G12D) (Homo sapiens (Human), UniProt P01116, G12D); experiment: AlphaLISA compound screening assay, KRAS-GTP protein format; details: AlphaLISA with cRAF, read-out: GTP-format IC50 (nM)/ Binding assay
[3] = target: KRAS G12D GCP protein (His-tag-KRAS G12D) (Homo sapiens (Human), UniProt P01116, G12D); experiment: AlphaLISA compound screening assay, KRAS-GCP protein format; details: AlphaLISA with cRAF, read-out: GCP-format IC50 (nM)/ Binding assay
[4] = test system: pERK in AGS cells; experiment: ERK phosphorylation cell assay, AGS; format: cell-based; details: 3 hours compound incubation, read-out: pERK AGS_IC50
In short: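 AGS […] cells, seeded overnight, were treated with compound for 3 hours at 37° C. pERK was detected by in-cell immunofluorescence, with GAPDH as normalizer, using 800CW/680RD secondary antibodies. Mean relative p-ERK levels were fitted against log concentration, with DMSO as negative and 10 μM Reference as positive control.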

[5] = test system: pERK in AsPC-1 cells; experiment: ERK phosphorylation cell assay, AsPC-1; format: cell-based; details: AsPC-1 cells; read-out: pERK AsPC-1_IC50
[6] = test system: AGS cells; experiment: 3D cell proliferation assay (CellTiter-Glo 3D), AGS; format: cell-based; details: 5 days, read-out: 3D Proliferation Inhibition AGS_IC50
In short: (§1)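 Cells grown with compound as 3D cultures in low-adsorption plates for 5 days at 37° C, 5% CO2. Viability read as ATP luminescence (CellTiter-Glo 3D), normalised to DMSO and medium-only controls; IC50 from non-linear fit of inhibition versus log concentration.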

[7] = test system: AsPC-1 cells; experiment: 3D cell proliferation assay (CellTiter-Glo 3D), AsPC-1; format: cell-based; details: 5 days, read-out: 3D Proliferation Inhibition AsPC-1_IC50
In short: as §1

Chain of KRAS G12D GTP protein (His-tag-KRAS G12D) (P01116-2 other isoform, or with tags, fused parts or gaps G12D): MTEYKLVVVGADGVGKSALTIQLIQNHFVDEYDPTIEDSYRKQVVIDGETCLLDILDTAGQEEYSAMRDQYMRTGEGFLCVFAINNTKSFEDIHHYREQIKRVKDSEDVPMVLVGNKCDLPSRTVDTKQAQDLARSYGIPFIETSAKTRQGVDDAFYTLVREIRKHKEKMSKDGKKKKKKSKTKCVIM
Chain of KRAS G12D GDP protein (His-tag-KRAS G12D) (P01116-2 other isoform, or with tags, fused parts or gaps G12D): as above
Chain of KRAS G12D GCP protein (His-tag-KRAS G12D) (P01116-2 other isoform, or with tags, fused parts or gaps G12D): as above

SMILES | IC50 [1] | IC50 [2] | IC50 [3] | IC50 [4] | IC50 [5] | IC50 [6] | IC50 [7]
O=C1CCCCCc2c(F)ccc3cc(O)cc(c23)-c2c(cc3c(N4CC5CCC(C4)N5)nc(OC[C@@]45CCCN4C[C@H](F)C5)nc3c2F)N1 [Example 9B, 12-((1R,5S)-3,8-diazabicyclo[3.2.1]octan-3-yl)-3,16-difluoro-14-(((2R,7aS)-2-fluorotetrahydro-1H-pyrazin-7a(5H)-yl)methoxy)-18-hydroxy-5,6,7,8-tetrahydro-4H-naphtho[1′,8′:4,5,6][1]azacyclododecino[2,3-g]quinazolin-9(10H)-one] | 1.6 nM | 1.95 nM | 58.5 nM | 17 nM | 70 nM | 93 nM | 222 nM
O=C1CCCCCCCCCc2c(F)ccc3cc(O)cc(c23)-c2c(cc3c(N4CC5CCC(C4)N5)nc(OC[C@@]45CCCN4C[C@H](F)C5)nc3c2F)N1 [Example 11, 16-((1R,5S)-3,8-diazabicyclo[3.2.1]octan-3-yl)-3,20-difluoro-18-(((2R,7aS)-2-fluorotetrahydro-1H-pyrazin-7a(5H)-yl)methoxy)-22-hydroxy-5,6,7,8,9,10,11,12-octahydro-4H-naphtho[1′,8′:4,5,61][1]azacyclohexadecano[2,3-g]quinazolin-13(14H)-one] | 500 nM | 726 nM | 909 nM | – | – | – | –
